Test results as given in publication PMC13242511, “Disrupting Notch signalling by a small molecule inhibiting dihydroorotate dehydrogenase activity” (Scientific Reports, 2026).
Values joined by “and” are separate entries in the source; they are usually repeats but may differ in a detail not shown here. Equal values may be shown once. Read-outs that look alike come from different tables or passages of the source.

Experiments:
Format in all cases: cell-based
γ-secretase complex = γ-secretase complex (Homo sapiens, UniProt P49768); experiment: APP-C99 counter assay (GSI reporter assay); design: AUC APP: scale not given here; details: for remaining activity at 10 µM / remaining activity at 25 µM / remaining activity at […]: APP-C99 counter assay, read-out: 3p-DR in % of DMSO counter; for remaining activity at […]: 1,25µM; for AUC APP: area under the 14-point dose-response curve, replicates averaged; for AUC 9p APP-counter assay / AUC. 14p APP-counter assay: AUCs averaged when replicates available; for APP assay: overview in comparison to compound C, Supplemental Fig. 9; for Hill-slope: bottom constrained to Emax of positive control LY-411575
Procedure, shortened: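 Cells transfected with APP-C99 firefly luciferase reporter plus renilla normalization plasmid, seeded 24 h later onto compound plates and cultured 24 h. Dual luciferase read in triplicate per concentration; IC50 from variable-slope log(inhibitor) fit, with AUC also calculated from dose–response curves.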

C2C12 cells = experiment: C2C12 myogenic assay; design: key to myogenic assay: + indicates that the compound had an effect; -: − indicates that there was no significant effect in the respective assay; key to mean fusion index: ratio of nuclei fused per area to total nuclei in field; details: for myogenic assay: summary Fig. 8E; for expression of the differentiation marker MYH4 / mean MFI in % of control / MYH4 (MFI) / fusion index, % of DMSO control / mean MFI / ratio MFI/MBI / mean fusion index / ratio nuclei %: 10 µM, five days; for mean MFI in % of control: DMSO ctrl = 100; for mean MFI in % of control / mean MFI / ratio MFI/MBI / mean fusion index / ratio nuclei %: experiments #1 and #2; for MYH4 (MFI) / fusion index, % of DMSO control: Fig. 5, equals mean of the two '% of control' values of the 4th table; for mean MFI / ratio MFI/MBI: MYH4; for ratio MFI/MBI / ratio nuclei %: single images; for myogenic diff.: overview in comparison to compound C, Supplemental Fig. 9
From the text: To corroborate their status as Notch inhibitors, we tested four of the five compounds (A, C, D, E) in an orthogonal assay for Notch function. Notch signalling plays an important role in myogenic differentiation, and blocking Notch signalling promotes myogenic differentiation in the myoblast cell line C2C12[27] (Fig. 5A). C2C12 cells can be maintained as myoblasts but upon serum starvation spontaneously differentiate to MYH4-positive multinucleated myotubes, a process which is accelerated by Notch blockade.
8000 C2C12 cells were seeded on gelatin (0.1%, Sigma-Aldrich, cat #G2500) coated cover slides (BD Bioscience) and cultivated in proliferation medium. For gelatin coating, 8-well cover slide chambers (BD Bioscience) were incubated for 60 min with 0.1% gelatin in PBS. The remaining liquid was aspirated, and gelatin was allowed to dry for 24 h. Cover slides were stored at 4 °C until use. Upon reaching 85% confluence cell culture medium was exchanged to differentiation medium to enhance differentiation into myocytes/myotubes. Cells were then treated with 10 µM of the respective compound for five days and DMSO-treated cells served as a base-line control. Next, cells were washed with 1 × cold PBS (ThermoFisher, cat #10010023) fixed with 4% paraformaldehyde (PFA, Sigma-Aldrich, cat #1.00496) in PBS for 10 min at room temperature and washed again with 1 × PBS. Fixed cells were either stored at 4 °C in PBS or directly processed for immunocytochemistry staining: For immunocytochemistry, cells were permeabilized for 10 min in 0.1% TritonX-100 / PBS, then washed in PBS and unspecific bindings sites were blocked in protein free blocking solution (DAKO, cat # × 0909) for 30 min at room temperature, followed by two times washing in PBS. Then, cells were incubated with primary antibody MYH4 (ThermoFisher) in blocking solution and 0.1% TritonX-100 in PBS for 1 h at room temperature. Next, cells were washed three times in PBS and incubated with secondary Alexa fluorophore coupled antibody (Invitrogen) in a 1:400 dilution. Labeling of F-actin filaments was conducted by phalloidin-TRITC (Sigma-Aldrich, cat # P1951) in a 1:2500 dilution. Cells were washed three times in PBS and incubated with DAPI (BD Bioscience cat # 564907) for 5 min at room temperature to stain DNA/nuclei. Finally, slides were fixed with mounting medium (ProLong Antifade mounting medium, ThermoFisher, cat #P36934). Bright field and immunocytochemistry images were taken using the SP8 LSM (Leica) at different magnifications and images were recorded as Z-stacks. Images were processed using the FijI (ImageJ) software. As controls, wells with and without differentiation medium were also stained to set the baseline and contrast the differences and stainings of cells with only secondary antibodies were used as negative controls to assess cross-reactivity and background staining. For calculating the MYH4 median fluorescence intensity (MFI) images have been converted into 8-bit greyscale and a standard color threshold was applied (ImageJ). Next, MFI signals per area were measured using ImageJ and divided by the median background intensity (MBI). The nuclei fusion index was calculated as the ratio of nuclei fused per area divided by the total number of nuclei in the field. A minimum of three images has been recorded for the calculations, and two replicate experiments were conducted. For calculations of MFI and fusion index see Supplemental Table 5.

NOTCH1 = experiment: Western blot analysis of S3-cleaved NOTCH1 (a-N1-V1744); details: for V1744 (activated N1) band intensity / V1744 normalised to beta-actin signals / V1744, DMSO as reference: Western blot quantification, Supplemental Figure 4K; for V1744, DMSO as reference: DMSO = 1
Description: Cells were washed in ice-cold PBS and incubated for 30 min on ice with RIPA cell lysis buffer (Thermofisher, cat #89900) containing protease and phosphatase inhibitors (Thermofisher, cat #78442), scraped off and homogenized using a 25G syringe, and subsequently centrifugated for 10 min at > 13,000xg. […] After electrophoresis, gels were placed directly onto a TransBlot Turbo PVDF or nitrocellulose membrane (Bio-rad, cat #1704157 and cat #1704159) and transferred using the “HIGH MW” protocol (Bio-Rad). Subsequently, membranes were blocked for 1 h at room temperature using Clear Milk Blocking Buffer (ThermoFisher, cat #37587) supplemented with 0.1% Tween20 (Sigma-Aldrich, cat #P1379). Detection of antibody binding was performed by using Clarity Western ECL-Substrate (Bio-rad, cat #1705060S). Beta-Actin protein signals were used as a loading control. Western blot membranes were in some experiments stripped after development (indicated in the figure in each respective case) by washing the membranes twice for 10 min in PBS, followed by incubation in membranes in western blot stripping buffer (ThermoFisher, cat #21059) for 30 min at room temperature and gentle agitation. Stripped membranes were washed twice with PBS and incubated for 30 min in blocking buffer before incubation with primary antibody. A list of all antibodies used in this study is provided in Supplemental Table 6. Uncropped western blot images are provided in […]. Protein expression levels of western blot bands were quantified using Fiji (V.2.16) with beta-Actin signals for normalisation (Supplemental Table 8). Uncropped western blot images are provided in Supplemental Fig. 10.

[1] = 14p APP assay DR, Notch inhibitor controls, no bottom constraint named

SMILES	remaining activity at 10 µM (γ-secretase complex; 24 h) [%]	remaining activity at 25 µM (γ-secretase complex; 24 h) [%]	remaining activity at […] (γ-secretase complex; 24 h) [%]	AUC APP (γ-secretase complex)	myogenic assay (C2C12 cells)	V1744 (activated N1) band intensity (NOTCH1)	V1744 normalised to beta-actin signals (NOTCH1)	V1744, DMSO as reference (NOTCH1)	Hill-Slope 9p APP counter assay averaged (γ-secretase complex; 9p dose response)	AUC 9p APP-counter assay (γ-secretase complex; 9p dose response)	curve fit information (γ-secretase complex; [1])	AUC. 14p APP-counter assay (γ-secretase complex; 14p dose response)	APP assay (γ-secretase complex)	Hill-slope (γ-secretase complex; 14p APP assay DR)	expression of the differentiation marker MYH4 (C2C12 cells)	mean MFI in % of control (C2C12 cells)	MYH4 (MFI) (C2C12 cells)	mean MFI (C2C12 cells)	mean fusion index (C2C12 cells)	ratio nuclei % (C2C12 cells)	also measured
Cc1ccc2[nH]c3c(c2c1)CCOC31CCN(Cc2ccccc2-c2ccccc2)CC1 [compound B]	113	149	100	643.8	-	10802.4	0.6	0.4585													
C[C@H](NC(=O)Cc1cc(F)cc(F)c1)C(=O)N[C@H](C(=O)OC(C)(C)C)c1ccccc1 [DAPT, reference compound]				580.4					-2.8	3.64E+02	IC50 indeterminate	5.80E+02	higher potency								IC50 (γ-secretase complex; 9p dose response, averaged, read-out: 9p APP counter assay averaged IC50s): 2.5 µM; 9p APP counter assay averaged IC50s (log) (γ-secretase complex; 9p dose response, log10 of averaged IC50): -5.6; IC50 (γ-secretase complex; 9p dose response, read-out: approximated IC50s 9p APP counter assay): 2.5 µM; IC50 (γ-secretase complex; 14-point, unit inferred, some fits outside of tested concentration range, read-out: approximated IC50s 14p APP-counter assay): 0.4 µM; IC50 (γ-secretase complex; 14p APP assay DR, Notch inhibitor controls, no bottom constraint named, read-out: approximated IC50): 5.2 µM; IC50 (γ-secretase complex; 14p dose response, single replicates, read-out: approximated IC50s 14p APP counter assay averaged): 5.2 µM; IC50 (γ-secretase complex; 14p dose response, averaged over replicates, read-out: 14p APP counter assay averaged IC50s): 5.2 µM; S3-processing of Notch1ΔE (Western blot) (NOTCH1; clone A (#A1-11), Fig. 1F): almost completely abolished
COc1cccc(CNc2ccc(N3CCCCC3)cc2)c1OCc1cccs1 [compound C]	150	152	157	731.3	+	14466.8	0.8	0.5945						0.0377	elevated expression	343.9 % of control and 318.1 % of control	331.0	4.2	5.3	3.3% and 7.3%	activity at 10 µM (γ-secretase complex; 24 h, 10 µM, sheet conf vs counter 10 µM, read-out: Counter screen (Hek APP-C99)): 150%; fusion index, % of DMSO control (C2C12 cells): 268.7; ratio MFI/MBI (C2C12 cells): 4.0 and 4.4; myogenic diff. (C2C12 cells): yes
CC(C)(C)c1ccc(Oc2ccc(N)cn2)cc1 [CB-103, reference compound]				548.4		20841.8	0.8	0.6093	-2.0	3.16E+02	IC50 indeterminate	5.48E+02	weak potency		increased MYH4 levels, although not reaching statistical significance	378.0 % of control and 227.3 % of control		3.6 and 4.6	5.7 and 3.1	5.0% and 6.3% and 5.7% and 3.1%	myogenic diff. (C2C12 cells): no
Cc1nn(-c2nc3ccccc3s2)c(O)c1C1OC(=O)c2ccccc21 (stereo not shown) [compound E]	80.7	81.7	83.7	684.1	+	44303.5	1.9	1.451						-0.00246	elevated expression	561.7 % of control and 394.0 % of control	477.8	6.9 and 6.2	6.2 and 7.6	5.9% and 6.4% and 6.2% and 7.9% and 6.8% and 8.0%	fusion index, % of DMSO control (C2C12 cells): 290.1; ratio MFI/MBI (C2C12 cells): 6.3 and 6.7 and 7.6 and 5.1 and 6.8
